# Molecular target: human CYP2D6 (Homo sapiens, UniProt P10635)
# Assay: Cytochrome P450 2D6 inhibition (dextromethorphan O-demethylation, pooled human hepatic microsome)
# Sequence of human CYP2D6 (P10635 whole entry): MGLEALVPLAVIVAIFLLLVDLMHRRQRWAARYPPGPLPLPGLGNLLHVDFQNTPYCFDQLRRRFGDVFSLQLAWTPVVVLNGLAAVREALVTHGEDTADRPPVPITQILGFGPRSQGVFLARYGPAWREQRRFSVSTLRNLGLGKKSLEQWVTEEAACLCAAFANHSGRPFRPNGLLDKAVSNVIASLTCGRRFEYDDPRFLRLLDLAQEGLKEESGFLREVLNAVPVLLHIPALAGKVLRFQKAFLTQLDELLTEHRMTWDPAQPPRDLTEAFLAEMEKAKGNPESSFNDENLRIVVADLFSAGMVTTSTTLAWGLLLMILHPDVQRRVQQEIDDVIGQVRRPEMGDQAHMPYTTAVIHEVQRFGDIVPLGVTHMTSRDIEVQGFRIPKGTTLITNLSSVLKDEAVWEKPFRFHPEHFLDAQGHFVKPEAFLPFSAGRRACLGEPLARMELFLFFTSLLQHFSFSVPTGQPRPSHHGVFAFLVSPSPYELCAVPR
row,Structure (SMILES),IC50 [µM]
1,"Nc1nc(=O)n(-c2nc3ccccc3n([C@H]3C[C@H]4CCC[C@@H](C3)N4[C@H]3C[C@@H]4CCC[C@@H](C4)C3)c2=O)cc1F [B7a(i), 1-((1R,1′R,3r,3′R,5S,5′S)-[3,9′-bi(9′-azabicyclo[3.3.1]nonan)]-3′-yl)-3-(4-amino-5-fluoro-2-oxopyrimidin-1(2H)-yl)quinoxalin-2(1H)-one]",> 20
2,"O=C(O)Cn1c(-c2nc3ccccc3n([C@H]3C[C@H]4CCC[C@@H](C3)N4C3CCCCCCCCC3)c2=O)cccc1=O [BB1c(iii), 2-(6-(4-((1R,3r,5S)-9-cyclodecyl-9-azabicyclo[3.3.1]nonan-3-yl)-3-oxo-3,4-dihydroquinoxalin-2-yl)-2-oxopyridin-1(2H)-yl)acetic acid]",> 20
3,"O=c1c(N2CCNCC2)nc2ccccc2n1C1CCN(C2CCCCCCC2)CC1 [CC10, reference compound]",< 1
4,"O=C1CN(c2nc3ccccc3n(C3CCN(C4CCCCCCC4)CC3)c2=O)CCN1 [CC18, reference compound]",< 1
5,"NC1CCN(c2nc3ccccc3n(C3CCN(C4CCCCCCC4)CC3)c2=O)CC1 [CC22, reference compound]",1
6,"N[C@H]1CCN(c2nc3ccccc3n(C3CCN(C4CCCCCCC4)CC3)c2=O)C1 [CC39, reference compound]",< 1
7,"N[C@@H]1CCN(c2nc3ccccc3n(C3CCN(C4CCCCCCC4)CC3)c2=O)C1 [CC51, reference compound]",< 1
8,"N[C@@H]1CCN(c2nc3ccccc3n([C@H]3C[C@H]4CC[C@@H](C3)N4C3CCCCCCC3)c2=O)C1 [CC101, reference compound]",< 1
9,"O=C1CCN(c2nc3ccccc3n(C3CCN(C4CCCCCCC4)CC3)c2=O)N1 [CC119, reference compound]",> 20
10,"O=C(O)CN1CCN(c2nc3ccccc3n([C@H]3C[C@H]4CC[C@@H](C3)N4C3CCCCCCC3)c2=O)CC1 [CC337, reference compound]",13
11,"O=c1[nH]c(=O)n(-c2nc3ccccc3n([C@H]3C[C@H]4CCC[C@@H](C3)N4[C@H]3C[C@@H]4CCC[C@@H](C4)C3)c2=O)cc1Br [Compound B16a, 1-(4-((1R,1′R,3r,3R,5S,5′S)-[3,9′-bi(9′-azabicyclo[3.3.1]nonan)]-3′-yl)-3-oxo-3,4-dihydroquinoxalin-2-yl)-5-bromopyrimidine-2,4(1H,3H)-dione]",> 20
12,"C[C@@H]1C[C@@H]2C[C@H](C1)C[C@@H](N1[C@@H]3CCC[C@H]1C[C@@H](n1c(=O)c(-n4ncc(=O)[nH]c4=O)nc4ccccc41)C3)C2 [Compound B34a, 2-(4-((1R,1′R,3r,3′R,5S,5′S,7S)-7-methyl-[3,9′-bi(9′-azabicyclo[3.3.1]nonan)]-3′-yl)-3-oxo-3,4-dihydroquinoxalin-2-yl)-1,2,4-triazine-3,5(2H,4H)-dione]",> 20
13,C[C@@H]1C[C@@H]2C[C@H](C1)C[C@@H](N1[C@@H]3CCC[C@H]1C[C@@H](n1c(=O)c(N4C(=O)NC(C)(C)C4=O)nc4ccccc41)C3)C2 [Compound B47a],> 20
14,"O=c1cnn(-c2nc3ccccc3n([C@H]3C[C@H]4CC[C@@H](C3)N4[C@@H]3C[C@@H]4CCCC[C@@H](C4)C3)c2=O)c(=O)[nH]1 [Compound N9b, 2-(4-((1R,3R,5S)-8-((1R,6S,8s)-bicyclo[4.3.1]decan-8-yl)-8-azabicyclo[3.2.1]octan-3-yl)-3-oxo-3,4-dihydroquinoxalin-2-yl)-1,2,4-triazine-3,5(2H,4H)-dione]",> 20
15,"Cc1nn(-c2nc3ccccc3n([C@H]3C[C@H]4CCC[C@@H](C3)N4[C@@H]3C[C@@H]4CCCC[C@@H](C4)C3)c2=O)c(=O)[nH]c1=O [Compound O10b, 2-(4-((1R,3R,5 S)-9-((1R,6S,8s)-bicyclo[4.3.1]decan-8-yl)-9-azabicyclo[3.3.1]nonan-3-yl)-3-oxo-3,4-dihydroquinoxalin-2-yl)-6-methyl-1,2,4-triazine-3,5(2H,4H)-dione]",> 20
16,"CC1(C)NC(=O)N(c2nc3ccccc3n([C@H]3C[C@H]4CCC[C@@H](C3)N4[C@@H]3C[C@@H]4CCCC[C@@H](C4)C3)c2=O)C1=O [Compound O22b, 3-(4-((1R,3R,5S)-9-((1R,6S,8s)-bicyclo[4.3.1]decan-8-yl)-9-azabicyclo[3.3.1]nonan-3-yl)-3-oxo-3,4-dihydroquinoxalin-2-yl)-5,5-dimethylimidazolidine-2,4-dione]",> 20
17,"O=C(O)Cn1cc(-c2nc3ccccc3n([C@H]3C[C@H]4CCC[C@@H](C3)N4[C@H]3C[C@@H]4CCC[C@@H](C4)C3)c2=O)ccc1=O [Compound U007, 2-(5-(4-((1R,1′R,3r,3′R,5S,5′S)-[3,9′-bi(9′-azabicyclo[3.3.1]nonan)]-3′-yl)-3-oxo-3,4-dihydroquinoxalin-2-yl)-2-oxopyridin-1(2H)-yl)acetic acid]",> 20
18,"O=C(O)Cn1ccc(-c2nc3ccccc3n([C@H]3C[C@H]4CCC[C@@H](C3)N4[C@H]3C[C@@H]4CCC[C@@H](C4)C3)c2=O)cc1=O [Compound U010, 2-(4-(4-((1R,1′R,3r,3R,5S,5′S)-[3,9′-bi(9′-azabicyclo[3.3.1]nonan)]-3′-yl)-3-oxo-3,4-dihydroquinoxalin-2-yl)-2-oxopyridin-1(2H)-yl)acetic acid]",> 20
19,"O=C(O)c1cc(-c2nc3ccccc3n([C@H]3C[C@H]4CCC[C@@H](C3)N4[C@@H]3C[C@@H]4CCCC[C@@H](C4)C3)c2=O)c[nH]c1=O [Compound U043, 5-(4-((1R,3R,5S)-9-((1R,6S,8s)-bicyclo[4.3.1]decan-8-yl)-9-azabicyclo[3.3.1]nonan-3-yl)-3-oxo-3,4-dihydroquinoxalin-2-yl)-2-oxo-1,2-dihydropyridine-3-carboxylic acid]",> 20
20,"C[C@@H]1C[C@@H]2C[C@H](C1)C[C@@H](N1[C@@H]3CCC[C@H]1C[C@@H](n1c(=O)c(-c4c[nH]c(=O)cn4)nc4ccccc41)C3)C2 [Compound U052, 1-((1R,1′R,3r,3′R,5S,5′S,7S)-7-methyl-[3,9′-bi(9′-azabicyclo[3.3.1]nonan)]-3′-yl)-3-(5-oxo-4,5-dihydropyrazin-2-yl)quinoxalin-2(1H)-one]",> 20
21,"C[C@@H]1C[C@@H]2C[C@H](C1)C[C@@H](N1[C@@H]3CCC[C@H]1C[C@@H](n1c(=O)c(-c4ccc(=O)[nH]c4)nc4ccccc41)C3)C2 [Compound U060, 1-((1R,1′R,3r,3′R,5S,5′S,7S)-7-methyl-[3,9′-bi(9′-azabicyclo[3.3.1]nonan)]-3′-yl)-3-(6-oxo-1,6-dihydropyridin-3-yl)quinoxalin-2(1H)-one]",> 20
22,"C[C@@H]1C[C@@H]2C[C@H](C1)C[C@@H](N1[C@@H]3CCC[C@H]1C[C@@H](n1c(=O)c(-c4c[nH]c(=O)c(C(N)=O)c4)nc4ccccc41)C3)C2 [Compound U063, 5-(4-((1R,1′R,3r,3′R,5S,5′S,7S)-7-methyl-[3,9′-bi(9′-azabicyclo[3.3.1]nonan)]-3′-yl)-3-oxo-3,4-dihydroquinoxalin-2-yl)-2-oxo-1,2-dihydropyridine-3-carboxamide]",7.2
23,"C[C@@H]1C[C@@H]2C[C@H](C1)C[C@@H](N1[C@@H]3CCC[C@H]1C[C@@H](n1c(=O)c(-c4c[nH]c(=O)c(C(=O)O)c4)nc4ccccc41)C3)C2 [Compound U064, 5-(4-((1R,1′R,3r,3′R,5S,5′S,7S)-7-methyl-[3,9′-bi(9′-azabicyclo[3.3.1]nonan)]-3′-yl)-3-oxo-3,4-dihydroquinoxalin-2-yl)-2-oxo-1,2-dihydropyridine-3-carboxylic acid]",> 20
24,"Cc1cc(=O)[nH]c(=O)n1-c1nc2ccccc2n([C@H]2C[C@H]3CCC[C@@H](C2)N3[C@H]2C[C@@H]3CCC[C@@H](C3)C2)c1=O [Compound U065, 1-(4-((1R,1R,3r,3′R,5S,5′S)-[3,9′-bi(9′-azabicyclo[3.3.1]nonan)]-3′-yl)-3-oxo-3,4-dihydroquinoxalin-2-yl)-6-methylpyrimidine-2,4(1H,3H)-dione]",> 20
25,"Nc1ccn(-c2nc3ccccc3n([C@H]3C[C@H]4CC[C@@H](C3)N4[C@@H]3C[C@@H]4CCCC[C@@H](C4)C3)c2=O)c(=O)n1 [Compound U066, 3-(4-amino-2-oxopyrimidin-1(2H)-yl)-1-((1R,3R,5S)-8-((1R,6S,8s)-bicyclo[4.3.1]decan-8-yl)-8-azabicyclo[3.2.1]octan-3-yl)quinoxalin-2(1H)-one]",> 20
26,Nc1nc(=O)n(-c2nc3ccccc3n([C@H]3C[C@H]4CCC[C@@H](C3)N4[C@@H]3C[C@@H]4CCCC[C@@H](C4)C3)c2=O)cc1F [Compound U067],> 20
27,"O=C(O)Cn1c(-c2nc3ccccc3n([C@H]3C[C@H]4CC[C@@H](C3)N4[C@@H]3C[C@@H]4CCCC[C@@H](C4)C3)c2=O)cccc1=O [DD1b(iii), 2-(6-(4-((1R,3R,5S)-8-((1R,6S,8s)-bicyclo[4.3.1]decan-8-yl)-8-azabicyclo[3.2.1]octan-3-yl)-3-oxo-3,4-dihydroquinoxalin-2-yl)-2-oxopyridin-1(2H)-yl)acetic acid]",> 20
28,"O=C(O)Cn1c(-c2nc3ccccc3n([C@H]3C[C@H]4CCC[C@@H](C3)N4[C@@H]3C[C@@H]4CCCC[C@@H](C4)C3)c2=O)cccc1=O [EE1b(iii), 2-(6-(4-((1R,3R,5S)-9-((1R,6S,8s)-bicyclo[4.3.1]decan-8-yl)-9-azabicyclo[3.3.1]nonan-3-yl)-3-oxo-3,4-dihydroquinoxalin-2-yl)-2-oxopyridin-1(2H)-yl)acetic acid]",> 20
29,"O=c1[nH]nc(-c2nc3ccccc3n([C@H]3C[C@H]4CCC[C@@H](C3)N4[C@@H]3C[C@@H]4CCCC[C@@H](C4)C3)c2=O)[nH]1 [EE6b(i)(i), 1-((1R,3R,5S)-9-((1R,6S,8s)-bicyclo[4.3.1]decan-8-yl)-9-azabicyclo[3.3.1]nonan-3-yl)-3-(5-oxo-4,5-dihydro-1H-1,2,4-triazol-3-yl)quinoxalin-2(1H)-one]",> 20
30,"O=C(O)Cn1c(-c2nc3ccccc3n([C@H]3C[C@H]4CC[C@@H](C3)N4[C@H]3C[C@@H]4CCC[C@@H](C4)C3)c2=O)cccc1=O [Q1a(iii), 2-(6-(4-((1R,3R,5S)-8-((1R,3r,5S)-bicyclo[3.3.1]nonan-3-yl)-8-azabicyclo[3.2.1]octan-3-yl)-3-oxo-3,4-dihydroquinoxalin-2-yl)-2-oxopyridin-1(2H)-yl)acetic acid]",> 20
